Results published in publication PMC7956643, “Synthesis of Novel Pyrido[1,2-c]pyrimidine Derivatives with 6-Fluoro-3-(4-piperidynyl)-1,2-benzisoxazole Moiety as Potential SSRI and 5-HT1A Receptor Ligands” (International Journal of Molecular Sciences, 2021).
Marks after values point to notes of the source that are not given here.

Experiments:
5-HT7 receptors = target: T1, 5-HT7 receptors (Homo sapiens, UniProt P34969); test: 5-HT7 radioligand binding assay; conditions: [3H]-5-CT; HEK293 cells, human receptor
T1 construct: expressed in transfected cells
Protocol: (§1) In vitro radioligand binding assays for 5-HT2A, 5-HT6, 5-HT7 and D2 receptors were carried out using methods published by Zajdel et al.. For the assays, HEK293 cell cultures stably expressing the investigated human receptors were used. Cell pellets were thawed and homogenized in 20 vol of assay buffer using an Ultra Turrax tissue homogenizer, then centrifuged twice at 35000 g for 20 min at 4 °C, with incubation for 15 min at 37 °C in between. The composition of the assay buffers was as follows: for 5-HT2A receptors—50 mM Tris-HCl, 0.1 mM EDTA, 4 mM MgCl2 and 0.1% ascorbate; for 5-HT6 receptors—50 mM Tris-HCl, 0.5 mM EDTA, 4 mM MgCl2; for 5-HT7 receptors—50 mM Tris-HCl, 4 mM MgCl2, 10 µM pargyline and 0.1% ascorbate; for D2 receptors—50 mM Tris-HCl, 1 mM EDTA, 4 mM MgCl2, 120 mM NaCl, 5 mM KCl, 1.5 mM CaCl2 and 0.1% ascorbate. All assays were incubated in total volume of 200 mL in 96-well microtitre plates for 1 h at 37 °C, except for 5-HT2A receptors which were incubated at room temperature for 1.5 h. The process of equilibration was terminated by rapid filtration through Unifilter plates with a 96-well cell harvester, and radioactivity retained on the filters was quantified on a Microbeta plate reader (PerkinElmer, USA). For displacement studies, the assay samples contained as radioligands (PerkinElmer): 2 nM [^3H]-ketanserin (spec. act. 53.4 Ci/mmol) for 5-HT2A receptors; 2 nM [^3H]-LSD (spec. act. 83.6 Ci/mmol) for 5-HT6 receptors; 0.6 nM [^3H]-5-CT (spec. act. 39.2 Ci/mmol) for 5-HT7 receptors and [^3H]-raclopride (spec. act. 76.0 Ci/mmol) for D2 receptors. […] Each compound was tested in triplicate at 7–8 concentrations (10^-11-10^-4 M). The inhibition constants (Ki) were calculated from the Cheng–Prusoff equation [46]. Results were expressed as means of at least two separate experiments.

5-HT1A receptor [1] = target: T2, 5-HT1A receptor (Mus musculus, UniProt Q64264); test: Effect of WAY-100635 on the hypothermia induced by tested compounds; assay type: in vivo, CD-1 mice; conditions: mice
T2 construct: from tissue; host or cells: whole animal, male CD-1 mice
T2 sequence (Q64264 1-421): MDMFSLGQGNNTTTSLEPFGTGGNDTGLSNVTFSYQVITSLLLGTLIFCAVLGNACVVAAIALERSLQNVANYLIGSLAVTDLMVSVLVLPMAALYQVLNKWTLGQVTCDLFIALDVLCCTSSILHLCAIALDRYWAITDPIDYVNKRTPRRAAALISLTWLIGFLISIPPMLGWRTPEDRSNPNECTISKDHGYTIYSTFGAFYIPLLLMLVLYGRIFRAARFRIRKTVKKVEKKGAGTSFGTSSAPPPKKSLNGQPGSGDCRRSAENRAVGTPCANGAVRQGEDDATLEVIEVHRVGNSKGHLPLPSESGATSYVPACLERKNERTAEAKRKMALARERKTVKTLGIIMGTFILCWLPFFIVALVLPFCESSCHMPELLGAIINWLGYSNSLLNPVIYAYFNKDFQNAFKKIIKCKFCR
Protocol: (§2) The experiments were performed on male CD-1 mice (23–40 g). The animals were kept at room temperature (21 ± 2 °C) on a natural day-night cycle (March–October) and housed under standard laboratory conditions. They had free access to food and tap water before the experiment. Each experimental group consisted of 6–8 animals/dose. All the animals were used only once. 8-Hydroxy-2-(di-n-propylamino)tetralin hydro-bromide (8-OH-DPAT, Research Biochemical Inc.) was used as aqueous solution. […] Vehicle group was administered as 10% aqueous solution of dimethyl sulphoxide (DMSO). 8-OH-DPAT was injected subcutaneously (sc); 6a and 7g were given intraperitoneally (ip) in a volume of 10 mL/kg/mice. The obtained data were analyzed by Dunnett’s test (one drug administration) or by the Newman–Keuls test (two drugs administrations). Forced swim test: the obtained data was evaluated by one-way analysis of variance (ANOVA) followed by the Dunnett’s multiple comparisons test: p < 0.05 was considered significant.
(§3) The results were expressed as a change in body temperature (Δt) with respect to the basal body temperature, as measured at the beginning of the experiment.

5-HT1A receptor [2] = target: T2, 5-HT1A receptor; test: Body temperature in mice (induced hypothermia); assay type: in vivo, CD-1 mice; conditions: mice
Protocol: as §2, §3

D2 receptors = target: T3, D2 receptors (Homo sapiens, UniProt P14416); test: D2 radioligand binding assay; conditions: [3H]-raclopride; HEK293 cells, human receptor
T3 construct: expressed in transfected cells
Protocol: as §1

5-HT6 receptors = target: T4, 5-HT6 receptors (Homo sapiens, UniProt P50406); test: 5-HT6 radioligand binding assay; conditions: [3H]-LSD; HEK293 cells, human receptor
T4 construct: expressed in transfected cells
Protocol: as §1

human 5-HT1A receptor = target: T5, human 5-HT1A receptor (Homo sapiens, UniProt P08908); test: 5-HT1A radioligand binding assay; conditions: [3H]-8-OH-DPAT 1 nM; membranes from CHO-K1 cells with human 5-HT1A receptor
T5 construct: purchased PerkinElmer; host or cells: CHO-K1 cells, stably transfected
T5 sequence (P08908 1-422): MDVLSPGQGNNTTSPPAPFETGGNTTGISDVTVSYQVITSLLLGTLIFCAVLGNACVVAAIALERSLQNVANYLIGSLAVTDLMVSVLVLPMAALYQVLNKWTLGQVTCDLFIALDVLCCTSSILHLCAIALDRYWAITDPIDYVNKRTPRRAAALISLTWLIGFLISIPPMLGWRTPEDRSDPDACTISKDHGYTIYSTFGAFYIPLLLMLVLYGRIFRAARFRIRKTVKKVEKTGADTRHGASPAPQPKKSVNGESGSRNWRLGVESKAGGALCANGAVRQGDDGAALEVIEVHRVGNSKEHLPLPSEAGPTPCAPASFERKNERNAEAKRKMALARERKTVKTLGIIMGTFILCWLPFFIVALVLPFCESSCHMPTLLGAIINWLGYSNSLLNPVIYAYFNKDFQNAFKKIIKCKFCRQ
Protocol: Radioligand binding was performed using membranes from CHO-K1 cells stably transfected with the human 5-HT1A receptor (PerkinElmer, Fremont, CA, USA). All assays were carried out in duplicate. Then, 50 µL working solution of the tested compounds, 50 µL [^3H]-8-OH-DPAT (final concentration 1 nM) and 150 µL diluted membranes (20 µg protein per well) prepared in assay buffer (50 mM Tris, pH 7.4, 10 mM MgSO4, 0.5 mM EDTA, 0.1% ascorbic acid) were transferred to a polypropylene 96-well microplate using 96-wells pipetting station Rainin Liquidator (MettlerToledo, Columbus, OH, USA). […] The reaction was terminated by rapid filtration through GF/B filter mate, presoaked with 0.5% polyethyleneimine for 30 min. Ten rapid washes with 200 µL 50 mM Tris buffer (4 °C, pH 7.4) were performed using an automated harvester system—Harvester-96 MACH III FM (Tomtec, Hamden, CT, USA). […] Data were fitted to a one-site curve-fitting equation with Prism 6 (GraphPad Software, San Diego, CA, USA) and Ki values were estimated from the Cheng–Prusoff equation.

5-HT2A receptors = target: T6, 5-HT2A receptors (Homo sapiens, UniProt P28223); test: 5-HT2A radioligand binding assay; conditions: [3H]-ketanserin; HEK293 cells, human receptor
T6 construct: expressed in transfected cells
Protocol: as §1, with “All assays were incubated in total volume of 200 mL in 96-well microtitre plates for 1 h at 37 °C, except for 5-HT2A receptors which were incubated at room temperature for 1.5 h.” left out

SERT protein = target: T7, SERT protein (Rattus norvegicus, UniProt P31652); test: SERT radioligand binding assay; conditions: [3H]-citalopram 1.0 nM; rat cortex tissue
T7 construct: from tissue; host or cells: rat cortex
Protocol: Radioligand binding was performed using rat cortex tissue. All assays were carried out in duplicate. First, 50 µL working solution of the tested compounds, 50 µL [^3H]-citalopram (final concentration 1.0 nM) and 150 µL tissue suspension, prepared in assay buffer (50 mM Tris. pH 7.7; 150 mM NaCl; 5 mM KCl), were transferred to a polypropylene 96-well microplate using 96-wells pipetting station Rainin Liquidator (MettlerToledo). […] The reaction was terminated by rapid filtration through GF/B filter mate presoaked with 0.3% polyethyleneimine for 30 min. Ten rapid washes with 200 µL 50 mM Tris buffer (4 °C, pH 7.7) were performed using an automated harvester system—Harvester-96 MACH III FM (Tomtec). […] Data were fitted to a one-site curve-fitting equation with Prism 6 (GraphPad Software) and Ki values were estimated from the Cheng–Prusoff equation.

T3 sequence (P14416 whole entry): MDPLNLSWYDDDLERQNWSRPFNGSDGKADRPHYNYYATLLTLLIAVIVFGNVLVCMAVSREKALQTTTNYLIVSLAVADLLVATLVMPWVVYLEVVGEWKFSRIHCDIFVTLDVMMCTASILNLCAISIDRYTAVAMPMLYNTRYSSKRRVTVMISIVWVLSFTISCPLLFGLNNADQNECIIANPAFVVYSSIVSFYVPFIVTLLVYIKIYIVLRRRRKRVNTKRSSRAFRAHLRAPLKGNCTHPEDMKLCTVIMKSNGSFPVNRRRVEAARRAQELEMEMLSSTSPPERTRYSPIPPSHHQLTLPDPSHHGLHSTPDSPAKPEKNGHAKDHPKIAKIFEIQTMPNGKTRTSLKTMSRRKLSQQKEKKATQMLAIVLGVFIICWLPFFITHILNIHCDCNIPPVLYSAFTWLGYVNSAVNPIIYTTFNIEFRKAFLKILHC
T6 sequence (P28223 whole entry): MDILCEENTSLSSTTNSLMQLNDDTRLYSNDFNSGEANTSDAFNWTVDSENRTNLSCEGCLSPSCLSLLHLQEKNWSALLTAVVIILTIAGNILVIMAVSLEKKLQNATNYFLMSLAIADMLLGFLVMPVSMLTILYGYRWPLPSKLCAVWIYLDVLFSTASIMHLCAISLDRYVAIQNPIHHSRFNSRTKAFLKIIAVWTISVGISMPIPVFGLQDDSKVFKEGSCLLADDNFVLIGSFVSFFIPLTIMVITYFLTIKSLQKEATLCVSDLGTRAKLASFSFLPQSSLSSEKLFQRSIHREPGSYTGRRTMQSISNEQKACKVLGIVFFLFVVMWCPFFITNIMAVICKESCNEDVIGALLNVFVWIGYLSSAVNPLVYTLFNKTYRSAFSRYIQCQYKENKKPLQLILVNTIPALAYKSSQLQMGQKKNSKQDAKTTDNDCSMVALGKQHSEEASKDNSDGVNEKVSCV
T7 sequence (P31652 whole entry): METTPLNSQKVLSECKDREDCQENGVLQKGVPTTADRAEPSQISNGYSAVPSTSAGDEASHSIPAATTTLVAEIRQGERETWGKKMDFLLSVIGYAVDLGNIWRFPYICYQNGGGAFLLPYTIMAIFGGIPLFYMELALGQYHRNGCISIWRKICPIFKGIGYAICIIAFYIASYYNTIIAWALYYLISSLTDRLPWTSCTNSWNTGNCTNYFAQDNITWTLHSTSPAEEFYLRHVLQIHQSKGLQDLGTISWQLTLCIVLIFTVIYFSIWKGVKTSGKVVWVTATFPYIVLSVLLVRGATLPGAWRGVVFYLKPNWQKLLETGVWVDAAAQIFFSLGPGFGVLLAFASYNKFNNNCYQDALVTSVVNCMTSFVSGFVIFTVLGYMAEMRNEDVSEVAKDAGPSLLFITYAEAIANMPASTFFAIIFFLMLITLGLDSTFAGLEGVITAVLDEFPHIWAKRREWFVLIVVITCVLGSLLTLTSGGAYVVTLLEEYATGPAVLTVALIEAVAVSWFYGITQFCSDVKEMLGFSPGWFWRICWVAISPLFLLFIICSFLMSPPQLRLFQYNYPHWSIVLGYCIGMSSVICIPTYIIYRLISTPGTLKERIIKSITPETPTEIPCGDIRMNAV
T4 sequence (P50406 whole entry): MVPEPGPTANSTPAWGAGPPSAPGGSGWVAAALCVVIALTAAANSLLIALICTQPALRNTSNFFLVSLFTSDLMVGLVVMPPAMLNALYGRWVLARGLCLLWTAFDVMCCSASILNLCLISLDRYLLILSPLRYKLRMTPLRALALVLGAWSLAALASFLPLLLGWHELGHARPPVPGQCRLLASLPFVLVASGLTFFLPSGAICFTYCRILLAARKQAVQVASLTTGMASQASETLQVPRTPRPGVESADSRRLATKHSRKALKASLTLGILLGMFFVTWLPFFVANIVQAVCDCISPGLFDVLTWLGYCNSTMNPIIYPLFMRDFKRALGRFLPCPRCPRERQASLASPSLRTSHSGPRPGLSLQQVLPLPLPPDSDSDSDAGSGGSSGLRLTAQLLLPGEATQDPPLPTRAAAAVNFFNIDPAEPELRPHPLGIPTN
T1 sequence (P34969 whole entry): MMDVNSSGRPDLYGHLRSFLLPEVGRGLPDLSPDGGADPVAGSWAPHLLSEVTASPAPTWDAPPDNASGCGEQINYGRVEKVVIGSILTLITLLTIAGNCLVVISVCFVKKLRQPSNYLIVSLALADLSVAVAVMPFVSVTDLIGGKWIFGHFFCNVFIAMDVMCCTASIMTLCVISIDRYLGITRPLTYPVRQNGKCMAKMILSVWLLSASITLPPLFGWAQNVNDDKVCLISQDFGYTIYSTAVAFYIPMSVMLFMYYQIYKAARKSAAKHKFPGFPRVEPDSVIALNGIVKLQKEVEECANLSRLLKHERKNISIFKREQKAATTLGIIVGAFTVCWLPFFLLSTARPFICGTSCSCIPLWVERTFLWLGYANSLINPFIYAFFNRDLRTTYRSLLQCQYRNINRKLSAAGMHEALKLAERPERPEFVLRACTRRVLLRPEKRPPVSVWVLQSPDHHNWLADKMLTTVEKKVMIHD

## COc1ccc(-c2c3n(c(=O)n(CCCCN4CCC(c5noc6cc(F)ccc56)CC4)c2=O)CCCC3)cc1 [Compound 7g, 4-(4-Methoxyphenyl)-2-{4-[4-(6-fluoro-1,2-benzoxazol)-1-piperidyl]butyl}-5,6,7,8-tetrahydro-pyrido[1,2-c]pyrimidine-1,3-dione]
5-HT7 receptors
  Ki: 94 ± 11 nM
5-HT1A receptor [1]; WAY-100635 0.1 mg/kg sc 15 min before compound 1.25 mg/kg, 30 min
  Δt ± SEM, body temperature: −1.2 ± 0.2 ^b °C
5-HT1A receptor [1]; WAY-100635 0.1 mg/kg sc 15 min before compound 1.25 mg/kg, 60 min
  Δt ± SEM, body temperature: −0.7 ± 0.3 ^d °C
5-HT1A receptor [1]; vehicle + compound 1.25 mg/kg, 30 min
  Δt ± SEM, body temperature: −1.5 ± 0.3 ^c °C
5-HT1A receptor [1]; vehicle + compound 1.25 mg/kg, 60 min
  Δt ± SEM, body temperature: −1.7 ± 0.3 ^c °C
other
  melting point: 108 to 109 °C
5-HT1A receptor [2]
  Induction of hypothermia in mice: induced hypothermia
5-HT1A receptor [2]; 1.25 mg/kg ip, 30 min
  Δt ± SEM, body temperature: −1.5 ± 0.3 ^b °C
5-HT1A receptor [2]; 1.25 mg/kg ip, 60 min
  Δt ± SEM, body temperature: −1.7 ± 0.3 ^b °C
5-HT1A receptor [2]; 1.25 mg/kg ip, 90 min
  Δt ± SEM, body temperature: −1.3 ± 0.4 ^b °C
5-HT1A receptor [2]; 1.25 mg/kg ip, 120 min
  Δt ± SEM, body temperature: −1.0 ± 0.3 °C
5-HT1A receptor [2]; 2.5 mg/kg ip, 30 min
  Δt ± SEM, body temperature: −2.2 ± 0.2 ^b °C
5-HT1A receptor [2]; 2.5 mg/kg ip, 60 min
  Δt ± SEM, body temperature: −2.8 ± 0.3 ^b °C
5-HT1A receptor [2]; 2.5 mg/kg ip, 90 min
  Δt ± SEM, body temperature: −2.9 ± 0.3 ^b °C
5-HT1A receptor [2]; 2.5 mg/kg ip, 120 min
  Δt ± SEM, body temperature: −3.0 ± 0.4 ^b °C
5-HT1A receptor [2]; 5 mg/kg ip, 30 min
  Δt ± SEM, body temperature: −2.1 ± 0.1 ^b °C
5-HT1A receptor [2]; 5 mg/kg ip, 60 min
  Δt ± SEM, body temperature: −3.4 ± 0.3 ^b °C
5-HT1A receptor [2]; 5 mg/kg ip, 90 min
  Δt ± SEM, body temperature: −3.9 ± 0.5 ^b °C
5-HT1A receptor [2]; 5 mg/kg ip, 120 min
  Δt ± SEM, body temperature: −4.2 ± 0.8 ^b °C
D2 receptors
  Ki: 10 ± 1 nM
5-HT6 receptors
  Ki: 400 ± 32 nM

## COc1ccc(-c2c3n(c(=O)n(CCCCN4CCC(c5noc6cc(F)ccc56)CC4)c2=O)CCCC3)cc1 [Compound 7g]
Human 5-HT1A receptor
  Ki: 5 ± 0.5 nM
5-HT2A receptors
  Ki: 16 ± 2 nM
SERT protein
  Ki: 48 ± 2.4 nM

## O=c1c(-c2ccc(F)cc2)c2n(c(=O)n1CCCCN1CCC(c3noc4cc(F)ccc34)CC1)CCCC2 [Compound 7i, 4-(4-Fluorophenyl)-2-{4-[4-(6-fluoro-1,2-benzoxazol)-1-piperidyl]butyl}-5,6,7,8-tetrahydro-pyrido[1,2-c]pyrimidine-1,3-dione]
5-HT7 receptors
  Ki: 161 ± 27 nM
other
  melting point: 57 to 60 °C
Human 5-HT1A receptor
  Ki: 9.5 ± 1.1 nM
5-HT2A receptors
  Ki: 44 ± 6 nM
D2 receptors
  Ki: 17 ± 2 nM
SERT protein
  Ki: 311 ± 35 nM
5-HT6 receptors
  Ki: 740 ± 183 nM
